Where two headings read alike, the source gives them in different places.
Columns and labels:
[1] = target: T1, 19 kD truncated collagenase-1 (MMP-1) (Homo sapiens, UniProt P03956); assay: Matrix metalloprotease inhibition, fluorogenic substrate: collagenase-1; type: biochemical
T1 construct: 19 kD truncated collagenase-1 (MMP-1)
T1 sequence (P03956 101-269 limits assumed): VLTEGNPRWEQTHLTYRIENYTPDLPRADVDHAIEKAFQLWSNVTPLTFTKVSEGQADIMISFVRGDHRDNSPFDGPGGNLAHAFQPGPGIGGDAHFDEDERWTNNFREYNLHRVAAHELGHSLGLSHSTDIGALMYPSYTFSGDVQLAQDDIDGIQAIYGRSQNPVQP
Procedure: (§1) Assays are conducted in a total volume of 0.180 mL assay buffer (200 mM NaCl, 50 mM Tris, 5 mM CaCl2, 10 μM ZnSO4, 0.005% Brij 35, pH 7.6) in each well of a black 96-well microtiter plate. 19 kD collagenase-1, 20 kD collagenase-3, stromelysin-1,and 50 kD gelatinase B concentrations are adjusted to 500 pM, 30 pM, 5 nM, and 100 pM, respectively. A dose response is generated using an eleven-point, 3-fold serial dilution with initial starting test compound concentrations of 100, 10, or 1 μM. Inhibitor and enzyme reactions are incubated for 30 minutes at ambient temperature and then initiated with 10 μM fluorogenic substrate (above). The product formation is measured at Excitation343 /Emission450 nm after 45-180 minutes using a Fluostar SLT fluorescence analyzer. Percent inhibition is calculated at each inhibitor concentration and the data are plotted using standard curve fitting programs. IC50 values are determined from these curves. Assays are run at low substrate concentration ([S]<<Km) such that the calculated IC50 values are equivalent to Ki within experimental error.

serum TNFα = assay: Murine LPS-stimulated serum TNF inhibition; type: in vivo, mouse (C3/hen female mice); conditions: s.c., 40 mg/kg, 10 min prior to 200 μg/kg i.p. LPS; 90 min after LPS
Procedure: USA) for a final DMSO concentration of 1%. The dosing solution is sonicated briefly and 0.2 mL is injected subcutaneously 10 min prior to LPS injection, b) for per oral (p.o.) administration, test compounds are formulated in 0.2 mL of PBS and 0.1% Tween 80 and given orally via gavage 10 min prior to LPS administration.
Blood is immediately taken from the caudal vena cava and plasma prepared and frozen at -80° C. Plasma concentrations of TNF are measured by ELISA (Genzyme Co., Cambridge Mass.).

stromelysin-1 = stromelysin-1 (Homo sapiens, UniProt P08254); assay: Matrix metalloprotease inhibition, fluorogenic substrate: stromelysin-1; type: biochemical
Procedure: as §1

[2] = tested on: release of soluble tumor necrosis factor α from stimulated monocytes; assay: Cell-based TNFα release inhibition, LPS/PMA-stimulated MonoMac 6 cells, ELISA; conditions: Homo sapiens, MONO-MAC-6, 37° C., 2 h
Procedure: Compounds (10 mM) are serially diluted 1:3 in DMSO. Compound dilutions (20 μL) are added to a sterile round bottom 96 well plate (20 μL:200 μL total volume=1:10 for final concentrations of […] for test compounds). MonoMac 6 cell suspension (130 μL, 1.5×10^6 cells/mL) is then added to each well resulting in 2×10^5 cells/well. LPS/PMA (50 μL) solution is then added to each well (final concentrations of 10 ng/mL and 30 ng/mL respectively). The plate is incubated at 37° C. for 2 h then spun at 1,500 rpm for 3 min to pellet cells. The supernatant (120 μL/well) is removed to a new round bottom 96 well plate and diluted 1:10 in PBS. Then, 20 μL of the supernatant is transferred to a Cistron […] ELISA plate and processed according to the manufacturer's instructions to quantitate levels of TNFα. Percent inhibition of TNFα release is calculated at each inhibitor concentration and the data are plotted using standard curve fitting programs. IC50 values are determined from these curves.

TNFα Converting Enzyme = target: T2, TNFα Converting Enzyme (Homo sapiens, UniProt P78536); assay: TNFα converting enzyme inhibition, MonoMac 6 membrane preparation, radiolabeled substrate SPA; type: biochemical; on TNFα Converting Enzyme Ki: 200 nM substrate
T2 construct: Membrane preparation from MonoMac 6 cells; endogenous in cells; host or cells: MonoMac 6 cells, subfractionated membrane preparation
Procedure: The reaction is quenched by addition of streptavidin SPA beads (Amersham RPNQ0006), with excess binding capacity relative to substrate, suspended in 250 mM EDTA, pH 8.0. Binding is complete within 15 minutes and plates are counted in a Wallac 1450 Microbeta liquid scintillation counter. Percent inhibition is calculated at each inhibitor concentration and the data are plotted using standard curve fitting programs. IC50 values are determined from these curves. Assays are run at low substrate concentration ([S]<<Km) such that the calculated IC50 values are equivalent to Ki within experimental error.

[3] = read-out: TNFα Converting Enzyme Ki

stromelysin-1, sequence (P08254 100-477): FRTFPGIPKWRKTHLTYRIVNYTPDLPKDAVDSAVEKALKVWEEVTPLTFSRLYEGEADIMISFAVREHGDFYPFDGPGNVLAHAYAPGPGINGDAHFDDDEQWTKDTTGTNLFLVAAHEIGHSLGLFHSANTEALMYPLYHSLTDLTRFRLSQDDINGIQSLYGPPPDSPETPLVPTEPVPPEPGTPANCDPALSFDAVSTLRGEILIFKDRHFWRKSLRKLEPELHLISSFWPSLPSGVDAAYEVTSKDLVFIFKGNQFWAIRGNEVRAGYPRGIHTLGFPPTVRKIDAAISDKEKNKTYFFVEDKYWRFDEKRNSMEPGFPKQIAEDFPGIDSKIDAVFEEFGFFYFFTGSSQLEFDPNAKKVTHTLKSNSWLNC
T2 sequence (P78536 215-824): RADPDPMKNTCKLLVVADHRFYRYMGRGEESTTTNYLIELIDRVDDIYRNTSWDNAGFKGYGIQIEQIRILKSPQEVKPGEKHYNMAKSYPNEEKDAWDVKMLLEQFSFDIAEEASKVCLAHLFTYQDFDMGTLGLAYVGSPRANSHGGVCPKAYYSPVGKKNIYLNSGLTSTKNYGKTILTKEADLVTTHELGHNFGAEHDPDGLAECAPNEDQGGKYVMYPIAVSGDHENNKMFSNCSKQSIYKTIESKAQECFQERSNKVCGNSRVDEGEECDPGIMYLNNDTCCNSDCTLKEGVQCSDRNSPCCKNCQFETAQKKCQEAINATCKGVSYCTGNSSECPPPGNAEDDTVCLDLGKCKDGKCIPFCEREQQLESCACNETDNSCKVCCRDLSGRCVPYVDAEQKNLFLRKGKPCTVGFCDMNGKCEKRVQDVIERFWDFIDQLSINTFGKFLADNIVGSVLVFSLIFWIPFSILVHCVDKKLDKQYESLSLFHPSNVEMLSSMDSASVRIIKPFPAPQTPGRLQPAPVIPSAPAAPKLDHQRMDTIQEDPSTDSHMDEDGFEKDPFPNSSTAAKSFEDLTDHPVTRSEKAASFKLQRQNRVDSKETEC

Compound	Ki [1] [nM]	Percentage Inhibition of Serum TNFα (serum TNFα)	Ki (stromelysin-1) [nM]	IC50 [2] [nM]	Ki (TNFα Converting Enzyme; [3]) [nM]	Ki (TNFα Converting Enzyme) [nM]
CCC[C@@H]([C@@H](CC(C)C)C(=O)N[C@@H](CCCNC(N)=N[N+](=O)[O-])C(=O)Nc1nccs1)N(O)C=O [Example 1, (2R,3S)-3-(Formyl-hydroxyamino)-2-(2-methyl-1-propyl)hexanoic Acid [(1S)-4-(nitroimino-amino)methylamino-1-(1,3-thiazol-2-ylcarbamoyl)-1-butyl]amide]	< 50	+++ (>75%)	< 50	< 50		
CCC[C@@H]([C@@H](CC1CCCCC1)C(=O)N[C@@H](CCCNC(N)=N[N+](=O)[O-])C(=O)Nc1nccs1)N(O)C=O [Example 2, (2R,3S)-3-(Formyl-hydroxyamino)-2-(cyclohexylmethyl)hexanoic Acid [(1S)-4-(nitroimino-amino)methylamino-1-(1,3-thiazol-2-ylcarbamoyl)-1-butyl]amide]	50 to 250	++ (50%-75%)	50 to 250	< 50	< 50	
CC(C)C[C@@H](C(=O)N[C@H](C(=O)Nc1nccs1)[C@H](C)CCNC(N)=N[N+](=O)[O-])[C@H](C)N(O)C=O [Example 3, (2R,3S)-3-(Formyl-hydroxyamino)-2-(2-methyl-1-propyl)butanoic Acid [(1S,2R)-2-Methyl-4-(nitroimino-amino)methylamino-1-(1,3-thiazol-2-ylcarbamoyl)-1-butyl]amide]	< 50		50 to 250	< 50	< 50	
CCC[C@@H]([C@@H](CC(C)C)C(=O)N[C@H](C(=O)Nc1nccs1)[C@H](C)CCNC(N)=N[N+](=O)[O-])N(O)C=O [Example 4, (2R,3S)-3-(Formyl-hydroxyamino)-2-(2-methyl-1-propyl)hexanoic Acid [(1S,2R)-2-Methyl-4-(nitroimino-amino)methylamino-1-(1,3-thiazol-2-ylcarbamoyl)-1-butyl]amide]	< 50		50 to 250	< 50	< 50	
CC(C)C[C@@H](C(=O)N[C@@H](CCCNC(N)=N[N+](=O)[O-])C(=O)Nc1nccs1)[C@H](Cc1ccccc1)N(O)C=O [Example 5]	< 50		< 50	250 to 500		
NC(=N[N+](=O)[O-])NCCC[C@H](NC(=O)[C@H](CC1CCCCC1)[C@H](CCC(F)(F)F)N(O)C=O)C(=O)Nc1nccs1 [Example 6, (2R,3S)-3-(Formyl-hydroxyamino)-2-(cyclohexylmethyl)-6,6,6-trifluorohexanoic Acid [(1S)-4-(nitroimino-amino)methylamino-1-(1,3-thiazol-2-ylcarbamoyl)-1-butyl]amide]	50 to 250	++ (50%-75%)	50 to 250	50 to 250	< 50	
CCC[C@@H]([C@@H](CC1CCC(C)CC1)C(=O)N[C@@H](CCCNC(N)=N[N+](=O)[O-])C(=O)Nc1nccs1)N(O)C=O (stereo partly drawn) [Example 7, (2R,3S)-3-(Formyl-hydroxyamino)-2-(4-methylcyclohexyl-methyl)hexanoic Acid [(1S)-4-(nitroimino-amino)methyl-amino-1-(1,3-thiazol-2-ylcarbamoyl)-1-butyl]amide]	50 to 250	++ (50%-75%)	50 to 250	50 to 250	< 50	
CC1CCC(C[C@@H](C(=O)N[C@@H](CCCNC(N)=N[N+](=O)[O-])C(=O)Nc2nccs2)[C@H](C(C)C)N(O)C=O)CC1 (stereo partly drawn) [Example 8, (2R,3S)-3-(Formyl-hydroxyamino)-2-(4-methylcyclohexyl-methyl)-4-methylpentanoic Acid [(1S)-4-(nitroimino-amino)methylamino-1-(1,3-thiazol-2-ylcarbamoyl)-1-butyl]amide]	50 to 250	++ (50%-75%)	50 to 250	< 50		
CCC[C@@H]([C@@H](Cc1ccc(C)s1)C(=O)N[C@@H](CCCNC(N)=N[N+](=O)[O-])C(=O)Nc1nccs1)N(O)C=O [Example 9, (2R,3S)-3-(Formyl-hydroxyamino)-2-(5-methyl-2-thio-phenemethyl)hexanoic Acid [(1S)-4-((nitroimino-amino)methylamino)-1-(1,3-thiazol-2-ylcarbamoyl)-1-butyl]amide]	> 1000		50 to 250	50 to 250		
NC(=N[N+](=O)[O-])NCCC[C@H](NC(=O)[C@H](CC1CCCCC1)[C@H](C1CC1)N(O)C=O)C(=O)Nc1nccs1 [Example 10, (2R,3S)-3-(Formyl-hydroxyamino)-2-(cyclohexylmethyl)-3-cyclopropylpropanoic Acid [(1S)-4-(nitroimino-amino)methylamino-1-(1,3-thiazol-2-ylcarbamoyl)-1-butyl]amide]	50 to 250	++ (50%-75%)	> 1000	250 to 500		< 50

Source: patent US6191150A, “Formamide compounds as therapeutic agents” (Glaxo Wellcome Inc., priority 1998, dated 2001)
